This passage reports IC50 and Kd results from patent US9751861B2, “N1-(3,3,3-trifluoro-2-hydroxo-2-methylpropionyl)-piperidine derivatives as inhibitors of pyruvate dehydrogenase kinase” (MERCK PATENT GMBH, priority 2013, dated 2017).

For one test, the target named is T1, PDHK2 (Homo sapiens, UniProt Q15119).
T1 construct: purchased Carna Bioscience
Nature of the test: Biochemical activity testing of PDHK2: PDC inactivation assay. Particulars: human rec PDHK2, PDC from porcine heart, ATP 5 μM; read-out: IC50 PDHK2 (enzyme assay). The text has this: Biochemical Activity Testing of PDHK2: PDC Inactivation Assay
The biochemical activity assay for PDHK2 is based on the inactivation of PDC through phosphorylation by PDHK2. The assay is run in two steps: the enzymatic PDHK2 reaction in which isolated PDC is phosphorylated by PDHK2 with ATP as co-substrate and the PDC activity assay in which pyruvate and NAD are converted to acetyl-CoA and NADH. The PDC activity correlates to the increase in NADH and thereby is detectable directly via the increasing fluorescence signal (Exc 340 nm, Em 450 nm). Inhibition of PDHK2 results in a lower phosphorylation status and thereby a less decrease in activity of PDC and a stronger increase in NADH fluorescence signal.
The PDC inactivation assay is performed in Greiner 384-well microtiter plates and is used for high throughput screen. 4 μl of PDHK2 (human, rec, Carna Bioscience, 10 ng/μl-137 nM final concentration) and PDC (isolated from porcine heart, Sigma-Aldrich, 20 mU/ml final concentration) are incubated in the absence or presence of the test compound (10 dilution concentrations) for 30 min at room temperature in kinase buffer (15 mM potassium phosphate buffer, pH 7.0, 60 mM KCl, 1.5 mM DTT, 2.5 mM MgCl2, 0.0125% (w/v) BSA, 0.125% Pluronic F-68). The kinase reaction is started by the addition of 4 μl ATP substrate solution (fc 5 μM in kinase buffer). After 30 min incubation at 37° C. 40 μl of PDC reaction solution (100 mM Tris/HCl, pH 7.8, 0.5 mM EDTA, 1 mM MgCl2, 50 mM NaF, 0.25 mM Coenzyme A, 5 mM pyruvate, 1 mM NAD, 5 mM DTT, […] thiamine pyrophosphate) is added. The first fluorescence measurement is performed on a Perkin Elmer Envision (Exc 340 nm, Em 450 nm). The reaction is incubated for 45 min at room temperature. Afterwards a second fluorescence measurement is performed and the PDC activity is calculated by the difference between both measurements. As full value for the PDHK2 assay the inhibitor-free PDHK2 reaction is used. The pharmacological zero value used is DCA (Sigma-Aldrich) in a final concentration of 3 mM. The inhibitory values (IC50) were determined using either the program Symyx Assay Explorer® or Condosseo® from GeneData.

For the next test, the target named is T2, human PDHK2 (12-407) (Homo sapiens, UniProt Q15119).
T2 construct: The human PDHK2 (12-407) was produced in E. coli; His-tag (cleaved yes); made in house; host or cells: E. coli
Nature of the test: Isothermal titration calorimetry (ITC) binding. To be noted: 30° C., pH 7.5. On the procedure: Isothermal Titration Calorimetry
ITC measurements were performed with a VP-ITC micro calorimeter (Microcal, LLC/GE Healthcare Bio-Sciences AB, Uppsala, Sweden). In general titrations were performed by titrating the protein (50 μM) to the test compound (5 μM) in 12 μl injections. All binding experiments were carried out at 30° C. In general the test compounds were diluted form DMSO stock solutions into the measurement buffer with a maximum final concentration of 1% DMSO. The measurement buffer was 20 mM HEPES, 135 mM KCl, 1 mM TCEP, 2 mM MgCl2, 15 mM NaH2PO4, pH 7.5. The human PDHK2 (12-407) was produced in E. coli as his-tagged protein and purified by affinity chromatography. The tag was removed by side specific proteolysis. Before titration the protein buffer was changed to the measurement buffer containing the same DMSO concentration as the test compound dilution. ITC data analysis was performed using Origin 7 calorimetry software from the same supplier. For most measurements a binding model of one binding site was assumed. According to the applied mathematical model it is possible to calculate the binding constant (KA), the observed binding enthalpy (ΔH^obs) as well as the stoichiometry (N) of the formed complex. Preceding analysis the raw data was corrected for the heats of dilution by extrapolating from the saturation value from the end of titration. In order to allow for direct comparison between the respective experimental series and protein preparations the protein concentration was corrected by referencing titrations to a well behaved standard inhibitor. The apparent stoichiometry values defined the fraction of binding competent protein and compensated for relative errors in protein concentration measurements. This corrected protein concentration was used to set up ITC experiment series with test compounds. Any deviations from ideal 1:1 stoichiometry observed here were attributed to errors in compound concentration. This nominal compound concentration was corrected as well to achieve 1:1 stoichiometry in the fit.
(In general: In ITC the heat of successive injections is recorded.)

A further test deals with PDH-Elalpha (pSer300). Nature of the test: Cellular immunofluorescence assay in HEK293T cells. Format: cell-based. To be noted: Homo sapiens, HEK-293T, 5 hours incubation, anti-PDH-E1alpha pSer300 immunofluorescence, read-out: IC50 (cell data). On the procedure: Cellular Assay for Determination of Compound Activities
Compound activities were determined in a cellular immunofluorescence assay. Human HEK293T cells were seeded into black 384-well plates with clear bottom and grown overnight.
Next day, test compounds were added to the wells and the plates incubated for 5 hours. Following this, cells were fixed with formaldehyde, permeabilised and blocked. The primary antibody, Anti-PDH-Elalpha (pSer300), AP1064 (Merck Millipore) was added and incubated overnight in the plate wells. Next, cells were washed and the seconday antibody, Alexa Fluor 488, goat anti-rabbit ab (A-11008, Invitrogen) was added together with Hoechst 33258 (H3569, Invitrogen) and incubated for 1 hour in the plate wells. Finally, cells were washed and the plates were measured on the laser scanning cytometer acumen hci (TTpLabtech).
The raw data were normalized against a pharmacological inhibitor control and dose response curves were generated by plotting the percent effect values using the software package Genedata screener (Genedata).

The term IC50 denotes the concentration at which inhibition is half-maximal. For orientation: Kd means the constant that tells how readily two partners part at equilibrium. A high value points to lower affinity. On to `COc1ccc(-n2nccc2C2CCN(C(=O)C(C)(O)C(F)(F)F)CC2)c(F)c1` (racemic) [Compound A30, rac-3,3,3-Trifluoro-1-{4-[2-(2-fluoro-4-methoxy-phenyl)-2H-pyrazol-3-yl]-piperidin-1-yl}-2-hydroxy-2-methyl-propan-1-one], for which the IC50 is < 300 nM on PDHK2 and 300 to 3000 nM in the test on PDH-Elalpha (pSer300). Besides, the Kd on human PDHK2 (12-407) was < 300 nM.

Consider `Cc1ccc(-n2nccc2C2CCN(C(=O)[C@@](C)(O)C(F)(F)F)CC2)cc1` [Compound A1, (R)-3,3,3-trifluoro-2-hydroxy-2-methyl-1-[4-(2-p-tolyl-2H-pyrazol-3-yl)-piperidin-1-yl]-propan-1-one], for which the IC50 on PDHK2 was < 300 nM; in the test on PDH-Elalpha (pSer300), 300 to 3000 nM. Also, the Kd on human PDHK2 (12-407) is < 300 nM.

As for `COc1ccc(-n2nccc2C2CCN(C(=O)[C@@](C)(O)C(F)(F)F)CC2)cc1` [Compound A2, (R)-3,3,3-Trifluoro-2-hydroxy-1-{4-[2-(4-methoxy-phenyl)-2H-pyrazol-3-yl]-piperidin-1-yl}-2-methyl-propan-1-one], the IC50 at PDHK2 is < 300 nM; in the test on PDH-Elalpha (pSer300), 300 to 3000 nM. For the same compound, the Kd on human PDHK2 (12-407) was < 300 nM.

For `C[C@@](O)(C(=O)N1CCC(c2ccnn2-c2ccccc2F)CC1)C(F)(F)F` [Compound A4, (R)-3,3,3-Trifluoro-1-{4-[2-(2-fluoro-phenyl)-2H-pyrazol-3-yl]-piperidin-1-yl}-2-hydroxy-2-methyl-propan-1-one], the IC50 on PDHK2 is < 300 nM; in the test on PDH-Elalpha (pSer300), 300 to 3000 nM. For the same compound, on human PDHK2 (12-407), the Kd is < 300 nM.

On to `Cc1ccccc1-n1nccc1C1CCN(C(=O)[C@@](C)(O)C(F)(F)F)CC1` [Compound A5, (R)-3,3,3-Trifluoro-2-hydroxy-2-methyl-1-[4-(2-o-tolyl-2H-pyrazol-3-yl)-piperidin-1-yl]-propan-1-one], for which the IC50 at PDHK2 and in the test on PDH-Elalpha (pSer300) was 300 to 3000 nM throughout. In addition, the Kd on human PDHK2 (12-407) is < 300 nM.

Turning to `Cc1cccc(-n2nccc2C2CCN(C(=O)[C@@](C)(O)C(F)(F)F)CC2)c1` [Compound A6, (R)-3,3,3-Trifluoro-2-hydroxy-2-methyl-1-[4-(2-m-tolyl-2H-pyrazol-3-yl)-piperidin-1-yl]-propan-1-one], the IC50 on PDHK2 and with PDH-Elalpha (pSer300) was 300 to 3000 nM each time. Besides, the Kd at human PDHK2 (12-407) was < 300 nM.

In the case of `C[C@@](O)(C(=O)N1CCC(c2ccnn2-c2cccc(C#N)c2)CC1)C(F)(F)F` [Compound A8, 3-{5-[1-((R)-3,3,3-Trifluoro-2-hydroxy-2-methyl-propionyl)-piperidin-4-yl]-pyrazol-1-yl}-benzonitrile], the half-maximal inhibitory concentration (IC50) on PDHK2 and in the test with PDH-Elalpha (pSer300) was 300 to 3000 nM throughout. Further, the Kd on human PDHK2 (12-407) is < 300 nM.

With `C[C@@](O)(C(=O)N1CCC(c2ccnn2-c2ccc(C#N)cc2)CC1)C(F)(F)F` [Compound A9, 4-{5-[1-((R)-3,3,3-Trifluoro-2-hydroxy-2-methyl-propionyl)-piperidin-4-yl]-pyrazol-1-yl}-benzonitrile], the IC50 on PDHK2 and with PDH-Elalpha (pSer300) was 300 to 3000 nM in each case. Moreover, the Kd at human PDHK2 (12-407) was < 300 nM.

For the compound `C[C@@](O)(C(=O)N1CCC(c2ccnn2-c2cccc(F)c2)CC1)C(F)(F)F` [Compound A10, (R)-3,3,3-Trifluoro-1-{4-[2-(3-fluoro-phenyl)-2H-pyrazol-3-yl]-piperidin-1-yl}-2-hydroxy-2-methyl-propan-1-one], the figures for the IC50 on PDHK2 and in the test on PDH-Elalpha (pSer300) were < 300 nM and 300 to 3000 nM, respectively. Besides, on human PDHK2 (12-407), the Kd is < 300 nM.

Take `C[C@@](O)(C(=O)N1CCC(c2ccnn2-c2ccccc2Cl)CC1)C(F)(F)F` [Compound A11, (R)-1-{4-[2-(2-Chloro-phenyl)-2H-pyrazol-3-yl]-piperidin-1-yl}-3,3,3-trifluoro-2-hydroxy-2-methyl-propan-1-one]: the values for the IC50 at PDHK2 and in the test with PDH-Elalpha (pSer300) were < 300 nM and 300 to 3000 nM, respectively. Moreover, the Kd at human PDHK2 (12-407) was < 300 nM.
